The target in the assay is human LPAR1 (Homo sapiens, UniProt Q92633). In words: In vitro functional assay of lysophosphatidic acid receptor 1 activity (calcium flux). The format is cell-based. For orientation: Calcium assays in cells follow changes in intracellular calcium, usually with a dye or a luminescent sensor.
Setting [1] is: B103 cells stably expressing human LPAR1, calcium flux (Fluo-4 NW) after lysophosphatidic acid (18:1) at EC80, 100 pM to 10 μM, read-out: LPAR1 IC50.

The structures appear in SMILES notation. Where two headings read alike, the source gives them in different places.

Chain of human LPAR1 (Q92633 whole entry): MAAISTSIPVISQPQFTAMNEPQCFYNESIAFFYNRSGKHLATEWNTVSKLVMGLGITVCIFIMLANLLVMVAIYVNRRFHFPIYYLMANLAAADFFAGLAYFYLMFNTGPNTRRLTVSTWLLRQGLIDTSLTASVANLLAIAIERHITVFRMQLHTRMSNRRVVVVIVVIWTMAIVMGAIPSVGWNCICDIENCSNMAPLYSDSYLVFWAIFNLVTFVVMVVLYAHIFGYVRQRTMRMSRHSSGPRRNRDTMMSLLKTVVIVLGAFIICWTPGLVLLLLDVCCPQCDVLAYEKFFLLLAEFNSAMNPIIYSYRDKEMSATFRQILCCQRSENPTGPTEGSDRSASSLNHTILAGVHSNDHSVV

What is called IC50 is the concentration needed to halve the response being measured. In the case of `CC(=O)N[C@H]1CC[C@H](N(C(=O)Nc2ccc(C)nc2OC(F)F)c2ccccc2C(C)C)CC1` [Example 267, N-((1r,4r)-4-(3-(2-(difluoromethoxy)-6-methylpyridin-3-yl)-1-(2-isopropylphenyl)ureido)cyclohexyl)acetamide], the half-maximal inhibitory concentration (IC50) under setting [1] fell in the range of 10 to 100 nM.
Consider `CC(=O)N1CCC(N(C(=O)Nc2cc(F)c(C)nc2OC(F)F)c2ccccc2C(C)C)CC1` [Example 218, 1-(1-acetylpiperidin-4-yl)-3-(2-(difluoromethoxy)-5-fluoro-6-methylpyridin-3-yl)-1-(2-isopropylphenyl)urea], for which, under “LPAR1 IC50”, the IC50 was in the range of 10 to 100 nM.
Take `[2H]C([2H])([2H])Oc1cc(C(F)F)ncc1NC(=O)N(c1ccccc1C(C)C)[C@H]1CC[C@H](C(=O)O)CC1` [Example 296, (1r,4r)-4-(3-(6-(difluoromethyl)-4-(methoxy-d3)pyridin-3-yl)-1-(2-isopropylphenyl)ureido)cyclohexane-1-carboxylic acid]: the IC50 under setting [1] lay within 100 to 1000 nM.
For `COc1ccc(NC(=O)N(c2ccccc2C(C)C)C23CCN(C(C)=O)CC2C3)c(OC(F)F)n1` (stereo not shown) [Example 61, 1-(3-acetyl-3-azabicyclo[4.1.0]heptan-6-yl)-3-(2-(difluoromethoxy)-6-methoxypyridin-3-yl)-1-(2-isopropylphenyl)urea], the IC50 (LPAR1 IC50) fell in the range of 10 to 100 nM.
In the case of `COc1cc(Cl)c(F)cc1NC(=O)N(c1ccccc1C(C)C)[C@H]1CC[C@H](C(=O)O)CC1` [Example 333, (1r,4r)-4-(3-(4-chloro-5-fluoro-2-methoxyphenyl)-1-(2-isopropylphenyl)ureido)cyclohexane-1-carboxylic acid], under setting [1], the IC50 was under 10 nM.
Regarding `CC(=O)N1CC2(CC(N(C(=O)Nc3ncc(Br)cc3OC(F)F)c3ccccc3C(C)C)C2)C1` [Example 123, 1-(2-acetyl-2-azaspiro[3.3]heptan-6-yl)-3-(5-bromo-3-(difluoromethoxy)pyridin-2-yl)-1-(2-isopropylphenyl)urea], the IC50 under setting [1] was in the range of 100 to 1000 nM.
In the case of `CC(=O)N1CC[C@H]1CN(C(=O)Nc1ccc(C)nc1OC(F)F)c1ccccc1C(C)C` [Example 72, (S)-1-((1-acetylazetidin-2-yl)methyl)-3-(2-(difluoromethoxy)-6-methylpyridin-3-yl)-1-(2-isopropylphenyl)urea], under setting [1], the IC50 fell in the range of 100 to 1000 nM.
Take `CC(=O)N1CC(N(C(=O)Nc2ccc(C)nc2OC(F)F)c2ccccc2C(C)C)C1` [Example 67, 1-(1-acetylazetidin-3-yl)-3-(2-(difluoromethoxy)-6-methylpyridin-3-yl)-1-(2-isopropylphenyl)urea]: under setting [1], the IC50 fell in the range of 10 to 100 nM.
Still for that read-out and setting: the result for `Cc1cc(OC(F)F)c(NC(=O)N(c2ccccc2C(C)C)[C@H]2C[C@@H](CC(=O)O)C2)cn1` [Example 305] reads 10 to 100 nM.
Turning to `Cc1ccc(NC(=O)N(c2ccccc2C(C)C)[C@@H]2CCOC2)c(OC(F)F)n1` [Example 16, (R)-3-(2-(difluoromethoxy)-6-methylpyridin-3-yl)-1-(2-isopropylphenyl)-1-(tetrahydrofuran-3-yl)urea], the half-inhibitory concentration (IC50) under setting [1] lay within 10 to 100 nM.
Regarding `COc1ccc(NC(=O)N(c2ccccc2C(C)C)[C@H]2C[C@@H]3CC[C@H]2N3C(C)=O)c(OC(F)F)n1` (racemic) [Example 60, rac-1-((1R,2S,4S)-7-acetyl-7-azabicyclo[2.2.1]heptan-2-yl)-3-(2-(difluoromethoxy)-6-methoxypyridin-3-yl)-1-(2-isopropylphenyl)urea], under setting [1], the IC50 is over 1000 nM.
Regarding `COc1ccc(NC(=O)N(c2ccccc2C(C)C)[C@@H]2CCN(C3COC3)C2)c(OC(F)F)n1` [Example 37, (R)-3-(2-(difluoromethoxy)-6-methoxypyridin-3-yl)-1-(2-isopropylphenyl)-1-(1-(oxetan-3-yl)pyrrolidin-3-yl)urea], the IC50 under setting [1] fell in the range of 100 to 1000 nM.
With `Cc1ccc(NC(=O)N(c2ccccc2C(C)C)[C@H]2C[C@@H](Cc3nnn[nH]3)C2)c(OC(F)F)n1` [Example 192], the IC50 under setting [1] fell in the range of 10 to 100 nM.

The values are drawn from patent US20250034110A1, “LPAR1 ANTAGONISTS AND USES THEREOF” (Pipeline Therapeutics, Inc., priority 2021, published 2025).
